Data taken from ChEMBL document CHEMBL1201862, “PubChem BioAssay data set” (2004).
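The compound was tested at five concentrations on cells cultured in 96-well plates, with a 48-hour exposure period. GI50 is the concentration that inhibits growth by half.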 Calls of active or inactive are those of the source. No stated cut-off is given here; in the data, active = GI50 up to about 1.1 µM and inactive = higher.

Assays:
Test in all cases: NCI tumour cell line growth inhibition, 48 h
[1] = tested on: 786-0
[2] = tested on: A498
[3] = tested on: A549
[4] = tested on: ACHN
[5] = tested on: CAKI-1
[6] = tested on: CCRF-CEM
[7] = tested on: COLO 205
[8] = tested on: DLD-1
[9] = tested on: DMS-273
[10] = tested on: EKVX
[11] = tested on: HCC 2998
[12] = tested on: HCT-15
[13] = tested on: HL-60
[14] = tested on: HOP-18
[15] = tested on: HOP-92
[16] = tested on: HT-29
[17] = tested on: IGROV-1
[18] = tested on: K562
[19] = tested on: KM-20L2
[20] = tested on: KM12
[21] = tested on: LOX IMVI
[22] = tested on: LXFL 529
[23] = tested on: M14
[24] = tested on: M19-MEL
[25] = tested on: MOLT-4
[26] = tested on: Malme-3M
[27] = tested on: NCI-H23
[28] = tested on: NCI-H460
[29] = tested on: NCI-H522
[30] = tested on: OVCAR-3
[31] = tested on: OVCAR-4
[32] = tested on: OVCAR-5
[33] = tested on: OVCAR-8
[34] = tested on: RPMI-8226
[35] = tested on: RXF 393
[36] = tested on: SF-268
[37] = tested on: SF-295
[38] = tested on: SF-539
[39] = tested on: SK-MEL-28
[40] = tested on: SK-MEL-2
[41] = tested on: SK-MEL-5
[42] = tested on: SK-OV-3
[43] = tested on: SN12C
[44] = tested on: SNB-19
[45] = tested on: SNB-75
[46] = tested on: SW-620
[47] = tested on: TK-10
[48] = tested on: U-251
[49] = tested on: UACC-257
[50] = tested on: UACC-62
[51] = tested on: UO-31
[52] = tested on: XF498
[53] = tested on: DMS-114
[54] = tested on: HCT-116
[55] = tested on: HOP-62
[56] = tested on: NCI-H226
[57] = tested on: SNB-78
[58] = tested on: SR

O=C(O)CCNS(=O)(=O)c1ccc(NC(=O)c2ccccc2)cc1
GI50 [1]: > 100 µM (inactive) | GI50 [2]: > 100 µM (inactive) | GI50 [3]: > 100 µM (inactive) | GI50 [4]: > 100 µM (inactive) | GI50 [5]: > 100 µM (inactive) | GI50 [6]: > 100 µM (inactive) | GI50 [7]: > 100 µM (inactive) | GI50 [8]: > 100 µM (inactive) | GI50 [9]: > 100 µM (inactive) | GI50 [10]: > 100 µM (inactive) | GI50 [11]: > 100 µM (inactive) | GI50 [12]: > 100 µM | GI50 [13]: > 100 µM (inactive) | GI50 [14]: > 100 µM (inactive) | GI50 [15]: > 100 µM (inactive) | GI50 [16]: > 100 µM (inactive) | GI50 [17]: > 100 µM (inactive) | GI50 [18]: > 100 µM (inactive) | GI50 [19]: > 100 µM (inactive) | GI50 [20]: > 100 µM (inactive) | GI50 [21]: > 100 µM (inactive) | GI50 [22]: > 100 µM (inactive) | GI50 [23]: > 100 µM (inactive) | GI50 [24]: > 100 µM (inactive) | GI50 [25]: > 100 µM (inactive) | GI50 [26]: > 100 µM (inactive) | GI50 [27]: > 100 µM (inactive) | GI50 [28]: > 100 µM (inactive) | GI50 [29]: > 100 µM (inactive) | GI50 [30]: > 100 µM (inactive) | GI50 [31]: > 100 µM (inactive) | GI50 [32]: > 100 µM (inactive) | GI50 [33]: > 100 µM (inactive) | GI50 [34]: > 100 µM (inactive) | GI50 [35]: > 100 µM (inactive) | GI50 [36]: > 100 µM (inactive) | GI50 [37]: > 100 µM (inactive) | GI50 [38]: > 100 µM (inactive) | GI50 [39]: > 100 µM (inactive) | GI50 [40]: > 100 µM (inactive) | GI50 [41]: > 100 µM (inactive) | GI50 [42]: > 100 µM (inactive) | GI50 [43]: > 100 µM (inactive) | GI50 [44]: > 100 µM (inactive) | GI50 [45]: > 100 µM (inactive) | GI50 [46]: > 100 µM (inactive) | GI50 [47]: > 100 µM (inactive) | GI50 [48]: > 100 µM (inactive) | GI50 [49]: > 100 µM (inactive) | GI50 [50]: > 100 µM (inactive) | GI50 [51]: > 100 µM (inactive) | GI50 [52]: > 100 µM (inactive)

CCOC(=O)C(=O)Nc1ccc(Cl)cc1C
GI50 [1]: > 100 µM (inactive) | GI50 [3]: > 100 µM (inactive) | GI50 [4]: > 100 µM (inactive) | GI50 [5]: > 100 µM (inactive) | GI50 [6]: > 100 µM (inactive) | GI50 [7]: > 100 µM (inactive) | GI50 [8]: > 100 µM (inactive) | GI50 [53]: > 100 µM (inactive) | GI50 [9]: > 100 µM (inactive) | GI50 [10]: > 100 µM (inactive) | GI50 [11]: > 100 µM (inactive) | GI50 [54]: > 100 µM (inactive) | GI50 [12]: > 100 µM | GI50 [13]: > 100 µM (inactive) | GI50 [14]: > 100 µM (inactive) | GI50 [55]: > 100 µM (inactive) | GI50 [15]: > 100 µM (inactive) | GI50 [16]: > 100 µM (inactive) | GI50 [17]: > 100 µM (inactive) | GI50 [18]: > 100 µM (inactive) | GI50 [19]: > 100 µM (inactive) | GI50 [20]: > 100 µM (inactive) | GI50 [21]: > 100 µM (inactive) | GI50 [22]: > 100 µM (inactive) | GI50 [23]: > 100 µM (inactive) | GI50 [24]: > 100 µM (inactive) | GI50 [25]: > 100 µM (inactive) | GI50 [26]: > 100 µM (inactive) | GI50 [56]: > 100 µM (inactive) | GI50 [27]: > 100 µM (inactive) | GI50 [28]: > 100 µM (inactive) | GI50 [29]: > 100 µM (inactive) | GI50 [30]: > 100 µM (inactive) | GI50 [31]: > 100 µM (inactive) | GI50 [32]: > 100 µM (inactive) | GI50 [33]: > 100 µM (inactive) | GI50 [34]: > 100 µM (inactive) | GI50 [35]: > 100 µM (inactive) | GI50 [36]: > 100 µM (inactive) | GI50 [37]: > 100 µM (inactive) | GI50 [38]: > 100 µM (inactive) | GI50 [39]: > 100 µM (inactive) | GI50 [40]: > 100 µM (inactive) | GI50 [41]: > 100 µM (inactive) | GI50 [42]: > 100 µM (inactive) | GI50 [43]: > 100 µM (inactive) | GI50 [44]: > 100 µM (inactive) | GI50 [45]: > 100 µM (inactive) | GI50 [57]: > 100 µM (inactive) | GI50 [58]: > 100 µM (inactive) | GI50 [46]: > 100 µM (inactive) | GI50 [47]: > 100 µM (inactive) | GI50 [48]: > 100 µM (inactive) | GI50 [49]: > 100 µM (inactive) | GI50 [50]: > 100 µM (inactive) | GI50 [51]: > 100 µM (inactive) | GI50 [52]: > 100 µM (inactive)

CC(O)CNC(=O)C(C)Oc1ccc(OCC2CCCCC2)cc1 (centres undefined)
GI50 [1]: > 100 µM (inactive) | GI50 [2]: 20.7 µM (inactive) | GI50 [3]: > 100 µM (inactive) | GI50 [4]: > 100 µM (inactive) | GI50 [6]: > 100 µM (inactive) | GI50 [53]: 46.3 µM (inactive) | GI50 [9]: > 100 µM (inactive) | GI50 [11]: > 100 µM (inactive) | GI50 [54]: > 100 µM (inactive) | GI50 [12]: > 100 µM | GI50 [13]: > 100 µM (inactive) | GI50 [14]: > 100 µM (inactive) | GI50 [16]: > 100 µM (inactive) | GI50 [17]: > 100 µM (inactive) | GI50 [18]: > 100 µM (inactive) | GI50 [20]: > 100 µM (inactive) | GI50 [21]: > 100 µM (inactive) | GI50 [22]: > 100 µM (inactive) | GI50 [23]: > 100 µM (inactive) | GI50 [24]: > 100 µM (inactive) | GI50 [25]: > 100 µM (inactive) | GI50 [26]: > 100 µM (inactive) | GI50 [56]: 88.5 µM (inactive) | GI50 [28]: > 100 µM (inactive) | GI50 [29]: > 100 µM (inactive) | GI50 [30]: > 100 µM (inactive) | GI50 [31]: > 100 µM (inactive) | GI50 [33]: > 100 µM (inactive) | GI50 [36]: > 100 µM (inactive) | GI50 [37]: 84.1 µM (inactive) | GI50 [38]: > 100 µM (inactive) | GI50 [39]: > 100 µM (inactive) | GI50 [40]: > 100 µM (inactive) | GI50 [41]: > 100 µM (inactive) | GI50 [42]: > 100 µM (inactive) | GI50 [43]: > 100 µM (inactive) | GI50 [44]: > 100 µM (inactive) | GI50 [45]: > 100 µM (inactive) | GI50 [57]: > 100 µM (inactive) | GI50 [47]: > 100 µM (inactive) | GI50 [48]: > 100 µM (inactive) | GI50 [49]: 73.6 µM (inactive) | GI50 [50]: > 100 µM (inactive) | GI50 [51]: > 100 µM (inactive) | GI50 [52]: > 100 µM (inactive)
